Tests used:
HT-29 = assay: Inhibition of cell growth by counting cells, HT-29; assay type: cell-based, human; details: Homo sapiens, HT-29, 72 h; three days of incubation; read-out: IC50 (molar) HT-29
Procedure: (§1) 1°.—Inhibition of Cell Growth by Counting Cells.
(§2) This form of the assay employs 24 well multidishes of 16 mm diameter (Bergeron, 1984; Schroeder, 1981). The tumor cell lines employed are: P-388 (ATCC CCL 46), suspension culture of a lymphoid neoplasm from a DBA/2 mouse; A-549 (ATCC CCL 185), monolayer culture of a human lung carcinoma; HT-29 (ATCC HTB-38), monolayer culture of a human colon carcinoma; MEL-28 (ATCC HTB-72), monolayer culture of a human melanoma and DU-145 (ATCC HTB-81), monolayer culture of a human prostate carcinoma.
(§3) Cells were maintained, in logarithmic phase of growth in Eagle's Minimum Essential Medium, with Earle's Balanced Salts, with non-essential amino acids, with 2.0 mM L-Glutamine, without sodium bicarbonate (EMEM/neaa), supplemented with 10% Fetal Calf Serum (FCS), 10^−2 M. sodium bicarbonate and 0.1 U/l penicillin G+0.1 g/l streptomycin sulfate. For the experiments, cells are harvested from subconfluent cultures using trypsin and resuspended in fresh medium before plating.
(§4) A-549, HT-29, MEL-28 and DU-145 cells were seeded into 16 mm diameter wells at 1×10^4 cells per well in 1 ml aliquots of EMEM 5% FCS containing different concentrations of the sample to be tested. A separate set of cultures without drug was seeded as control of growth, to ensure that cells remained in exponential phase of growth. All determinations are carrying out in duplicate. After three days of incubation at 37° C., 5% CO2 in a 98% humid atmosphere cells were stained with 0.1% crystal violet. An approximately IC50 was determined by comparing the growth in wells with drug to the growth in wells control.
(§5) For quantifying the activity, after the incubation time, cells are trypsinized and counted in a Coulter Counter ZM. All counts (net cells per well), represent the average of duplicate wells. % G, percent of growth relative to cultures without drug. The results of these assays are used to generate dose-response curves from which more precise IC50 values are determined (sample concentration which produces 50% cell growth inhibition).
(§6) Obtained results may predict the usefulness of a certain drug as a potential cancer treatment. For this technique, compounds which show IC50 values smaller than 1 μg/ml are selected to continue with further studies. IC50's data allow to predict that not only could a drug be cystostatic, but also it could have a potential in terms of tumor reduction.

A-549 = assay: Inhibition of cell growth by counting cells, A-549; assay type: cell-based, human; details: Homo sapiens, A549, 72 h; three days of incubation; read-out: IC50 (molar) A-549
Procedure: as §1, §2, §3, §4, §5, §6

Structure (SMILES) | IC50 (HT-29) | IC50 (A-549)
COc1cc2c(cc1OC(=O)CCc1ccccc1)CCN[C@]21CS[C@@H]2c3c(OC(C)=O)c(C)c4c(c3[C@H](COC1=O)N1C2[C@H]2c3c(cc(C)c(OC)c3O)C[C@@H]([C@@H]1C#N)N2C)OCO4 (some centres unmarked) [Compound 11] | 0.554 nM | 0.554 nM
COc1cc2c(cc1OC(=O)CCCl)CCN[C@]21CS[C@@H]2c3c(OC(C)=O)c(C)c4c(c3[C@H](COC1=O)N1C2[C@H]2c3c(cc(C)c(OC)c3O)C[C@@H]([C@@H]1C#N)N2C)OCO4 (some centres unmarked) [Compound 12] | 0.116 nM | 0.116 nM
COc1cc2c(cc1OC(=O)[C@H](C)NC(=O)OC(C)(C)C)CCN[C@]21CS[C@@H]2c3c(OC(C)=O)c(C)c4c(c3[C@H](COC1=O)N1C2[C@H]2c3c(cc(C)c(OC)c3O)C[C@@H]([C@@H]1C#N)N2C)OCO4 (some centres unmarked) [Compound 24] | 0.531 nM | 0.531 nM
COc1cc2c(cc1OC(=O)OC(C)(C)C)CCN[C@]21CS[C@@H]2c3c(OC(C)=O)c(C)c4c(c3[C@H](COC1=O)N1C2[C@H]2c3c(cc(C)c(OC)c3OC)C[C@@H]([C@@H]1C#N)N2C)OCO4 (some centres unmarked) [Compound 45] | 0.113 nM | 0.113 nM
COC1=C(C)C(=O)C2=C(C1=O)[C@@H]1C3[C@@H]4SC[C@]5(NCCc6cc(O)c(OC)cc65)C(=O)OC[C@@H](c5c6c(c(C)c(OC(C)=O)c54)OCO6)N3[C@@H](C#N)[C@H](C2)N1C (some centres unmarked) [Compound 52] | 1.27 nM | 1.27 nM
CCCC(=O)Oc1cc2c(cc1OC)[C@@]1(CS[C@@H]3c4c(OC(C)=O)c(C)c5c(c4[C@H](COC1=O)N1C3[C@H]3c4c(cc(C)c(OC)c4OC(=O)CCC)C[C@@H]([C@@H]1O)N3C)OCO5)NCC2 (some centres unmarked) [Compound 81] | 5.54 nM | 5.54 nM
CCCCCCCC(=O)Oc1cc2c(cc1OC)[C@@]1(CS[C@@H]3c4c(OC(C)=O)c(C)c5c(c4[C@H](COC1=O)N1C3[C@H]3c4c(cc(C)c(OC)c4OC(=O)CCCCCCC)C[C@@H]([C@@H]1O)N3C)OCO5)NCC2 (some centres unmarked) [Compound 82] | 98.6 nM | 98.6 nM
COc1cc2c(cc1OC(=O)/C=C/c1ccccc1)CCN[C@]21CS[C@@H]2c3c(OC(C)=O)c(C)c4c(c3[C@H](COC1=O)N1C2[C@H]2c3c(cc(C)c(OC)c3OC(=O)/C=C/c3ccccc3)C[C@@H]([C@@H]1O)N2C)OCO4 (some centres unmarked) [Compound 84] | 48.9 nM | 48.9 nM
COc1cc2c(cc1OC(=O)OCc1ccccc1)CCN[C@]21CS[C@@H]2c3c(OC(C)=O)c(C)c4c(c3[C@H](COC1=O)N1C2[C@H]2c3c(cc(C)c(OC)c3OC(=O)OCc3ccccc3)C[C@@H]([C@@H]1O)N2C)OCO4 (some centres unmarked) [Compound 85] | 9.71 nM | 9.71 nM
COc1cc2c(cc1OC(=O)OC(C)(C)C)CCN[C@]21CS[C@@H]2c3c(OC(=O)OC(C)(C)C)c(C)c4c(c3[C@H](COC1=O)N1C2[C@H]2c3c(cc(C)c(OC)c3O)C[C@@H]([C@@H]1C#N)N2C)OCO4 (some centres unmarked) [Compound 108] | 0.108 nM | 0.108 nM

— patent US7759345B2, “Antitumoral derivatives of ET-743” (priority 2001, dated 2010)
